Results: ChEMBL document CHEMBL3882391, “Substituted tricyclic compounds as protein kinase inhibitors” (2008)
Blank lines part the entries; values can stand above or below the molecule they belong to. Calls of active or inactive are those of the source. No cut-off for these calls is given here.

Legend:
[1] = molecular target: T1, Aurora kinase A (Homo sapiens) (UniProt O14965); assay: Inhibition of human recombinant aurora-2 kinase expressed in Sf9 cells at 20 uM using kemptide as substrate by kinase-Glo luciferase assay
T1 sequence (whole entry): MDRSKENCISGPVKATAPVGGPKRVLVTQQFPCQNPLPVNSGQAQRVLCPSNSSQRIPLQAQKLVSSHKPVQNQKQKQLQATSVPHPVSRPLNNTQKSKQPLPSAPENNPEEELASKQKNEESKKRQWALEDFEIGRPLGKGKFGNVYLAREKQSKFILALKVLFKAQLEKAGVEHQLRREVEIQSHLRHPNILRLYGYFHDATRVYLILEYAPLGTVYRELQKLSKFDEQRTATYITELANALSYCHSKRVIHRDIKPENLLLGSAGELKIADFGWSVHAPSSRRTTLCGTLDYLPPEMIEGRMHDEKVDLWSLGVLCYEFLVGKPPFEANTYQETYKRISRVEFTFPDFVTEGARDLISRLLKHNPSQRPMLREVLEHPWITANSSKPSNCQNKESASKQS

[2] = system: MIA PaCa-2; assay: Inhibition of cell proliferation of human MIAPaCa2 cells at 3 to 300 uM after 48 hrs by hematocytometry; assay type: functional, cell-based
[3] = system: PANC-1; assay: Inhibition of cell proliferation of human PANC1 cells at 0.01 to 1000 uM after 4 days by MTS assay; assay type: functional, cell-based
[4] = system: MDA-MB-435; assay: Inhibition of cell proliferation of human MDA-MB-435 cells at 0.1 to 1000 uM after 4 days by MTS assay; assay type: functional, cell-based
[5] = system: ASPC1; assay: Inhibition of cell proliferation of human AsPC1 cells at 0.1 to 1000 uM after 4 days by MTS assay; assay type: functional, cell-based
[6] = system: Caco-2; assay: Inhibition of cell proliferation of human Caco2 cells at 0.1 to 1000 uM after 4 days by MTS assay; assay type: functional, cell-based
[7] = system: T47D; assay: Inhibition of cell proliferation of human T47D cells at 0.1 to 1000 uM after 4 days by MTS assay; assay type: functional, cell-based
[8] = system: COLO 320; assay: Inhibition of cell proliferation of human COLO320 cells at 0.1 to 1000 uM after 4 days by MTS assay; assay type: functional
[9] = system: MCF7; assay: Inhibition of cell proliferation of human MCF7 cells at 0.1 to 1000 uM after 4 days by MTS assay; assay type: functional, cell-based
[10] = system: A2780; assay: Inhibition of cell proliferation of human A2780 cells at 0.1 to 1000 uM after 4 days by MTS assay; assay type: functional, cell-based
[11] = system: MIA PaCa-2; assay: Inhibition of cell proliferation of human MIAPaCa2 cells at 0.01 to 1000 uM after 4 days by MTS assay; assay type: functional, cell-based

inhibition [1]: Active
Compound: O=S(=O)(Nc1ncccn1)c1ccc(Nc2ncnc3c2sc2ncccc23)cc1

inhibition [1]: Active
Compound: COc1cc2ncnc(Nc3cccc(Br)c3)c2cc1OC

inhibition [1]: Active
Compound: O=S(=O)(Nc1ncccn1)c1ccc(Nc2ncnc3c2oc2ccccc23)cc1

Compound: COc1cc2[nH]c3ncnc(N4CCN(C(=S)Nc5ccc(S(=O)(=O)Nc6ncccn6)cc5)CC4)c3c2cc1OC
inhibition [2]: Active
inhibition [3]: Active
inhibition [4]: Active
inhibition [5]: Active
inhibition [6]: Active
inhibition [7]: Active
inhibition [8]: Active
inhibition [9]: Active
inhibition [10]: Active
inhibition [11]: Active

inhibition [1]: Active
Compound: COc1cc2ncnc(N3CCN(C(=S)Nc4ccc(S(=O)(=O)Nc5ncccn5)cc4)CC3)c2cc1OC
